In data set [1] the test system is Musca domestica WHO/SRS (L3 larvas). The data set is described as follows: hatching of imagos from L3 fly larvas on treated nutriment. Type of data set: in vivo. Particulars: 12 days. An excerpt:
(§1) For this purpose the activity of several pyrethroid insecticides has been tested per se or in combination with different benzimidazole type anthelmintics on flies (Musca domestica). […] This synergistic interaction was shown not only in the decrease of the therapeutical concentrations but also on the activity of the sublethal doses to the development. The body mass of the larvas is decreased and from the little aurelias evolved during the long development often deformed imagos, unsuitable for further multiplication were hatched out. Above all the synergistic interaction has made possible the decrease of the therapeutic dose of the orally administered insecticide.
(§2) For examining the interaction between benzimidazoles and pyrethroids the larvas of domestic flies in L3 status (Musca domestica WHO/SRS) were used as model organism.
(§3) A nutriment suitable for breeding fly larvas was prepared from yeast, milk, bran and water and the nutriment was portioned into plastic glasses. Acetonic strain solution was prepared from the active ingredients and after dilution the amounts necessary for achieving the desired active ingredient concentrations were added to the nutriment in the plastic glasses.
The examinations were carried out with total active ingredient concentrations of 1, 5, 10, 50, 100 and 200 ppm in 6 parallel tests per each concentration. Into the plastic glasses containing the treated culture medium 20--20 domestic fly-larvas of L3 status were placed after mass measurement. The glasses were covered by gauze and after 12 days the hatched imagos were counted. In the control containing only solvent the hatching ratio was 91%, the average weight of the hatched flies was 18.2 mg.

For data set [2], the system named is Musca domestica (L3 larvas). As to the kind of experiment: average body mass and hatching % of fly larvas/imagos after treatment. Type of data set: in vivo.
Excerpt: as §1, §2, §3
Fly larvas of L3 status were grown in identical manner as in an Example 1, on a nutriment having a total active ingredient concentration of 5 and 10 ppm.

Data set [3] concerns horse bots (Gastrophylus larvas). The data set is described as follows: therapeutic dose / therapeutic index against horse bots. Type of data set: in vivo, Gastrophylus species (in horses). Particulars: for Therapeutic index (selectivity): quotient of toxic (rat LD50) and therapeutic dose (horse bots). The protocol:
One of the most important characteristics of the pharmaceutical compositions is the quotient of toxic and therapeutic dosage, the so-called therapeutic index characterizing the security of use. The higher is this value, the smaller is the risk in use, the selective is the active ingredient.
On the basis of the results of the laboratory examinations and toxicity data the therapeutic dose usable for treating bot infection of horses was determined in field trials.
(§4) The therapeutic indexes of current anthelmintics and transmix each having insecticidal activity and suitable for per os administration are shown in Table 1.

A short description of data set [4]: acute per os toxicity (LD50), measured on rats. Type of data set: in vivo, rat. The following applies: rat, in vivo, po.
Excerpt: as §4

Data set [5] has as its system horses. Particulars: horses (Vet. Med., 1985, Apr., p. 68); cited from earlier work.
The test system of data set [6] is rats. The data set is described as follows: acute per os toxicity (LD50), measured on rats. It counts as in vivo, rat.
Excerpt: as §4

The mark [7] stands for this setting: 100 ppm total active ingredient.
Where [8] appears, read: 200 ppm total active ingredient.

Regarding `CC1(C)C(C=C(Cl)Cl)C1C(=O)OC(C#N)c1cccc(Oc2ccccc2)c1` (stereo not drawn) [Chinmix, α-cyano-3-(2,2-dichlorovinyl)-2,2-dimethyl-cyclopropan-carboxylic acid-3-phenoxybenzylester], the “number of hatched imagos (from 120 L3)” value was determined as 90 in data set [1] (1 ppm total active ingredient); 62 in data set [1] (5 ppm total active ingredient); 47 in data set [1] (10 ppm total active ingredient); 27 in data set [1] (50 ppm total active ingredient); 4 in data set [1] (setting [7]); 0 in data set [1] (setting [8]). Moreover, the average body mass is 10.3 in data set [2] (5 ppm total active ingredient) and 7.8 in data set [2] (10 ppm total active ingredient). For the same molecule, the hatching % is reported as 53% in data set [2] (5 ppm total active ingredient) and 41% in data set [2] (10 ppm total active ingredient).

A word on the LD50: it is the dose expected to kill half of the subjects tested. A high value points to lower toxicity. Take `COP(=O)(OC)OC=C(Cl)Cl` [Dichlorvos, 2,2-dichlorovinyl-phosphonic acid dimethylester]: in data set [3], the “Therapeutic index (selectivity)” value worked out at 11. In data set [4], this molecule registered an LD50 of 56 mg/kg.

Regarding `CC1(C)[C@H](C=C(Cl)Cl)[C@H]1C(=O)O[C@H](C#N)c1cccc(Oc2ccccc2)c1` (relative stereo) [Transmix, α-cyano-3-(2,2-dichlorovinyl)-2,2-dimethyl-cyclopropan-carboxylic acid-3-phenoxybenzylester], the “number of hatched imagos (from 120 L3)” value is reported as 108 in data set [1] (1 ppm total active ingredient); 112 in data set [1] (5 ppm total active ingredient); 89 in data set [1] (10 ppm total active ingredient); 64 in data set [1] (50 ppm total active ingredient); 39 in data set [1] (setting [7]); 18 in data set [1] (setting [8]). In addition, the average body mass in data set [2] (5 ppm total active ingredient) was 12.9; in data set [2] (10 ppm total active ingredient), 9.6. Further, the figures for the hatching % in data set [2] (5 ppm total active ingredient) and in data set [2] (10 ppm total active ingredient) were 98% and 84%, respectively. Besides, in data set [3], the “Therapeutic index (selectivity)” value was 2500. For the same molecule, the LD50 in data set [4] came out at 5000 mg/kg.

`CCCSc1ccc2nc(NC(=O)OC)[nH]c2c1` [Albendazole, 5(6)-propylthio-benzimidazole-N-methylcarbamate]: the “number of hatched imagos (from 120 L3)” value in data set [1] (1 ppm total active ingredient) is on record as 111; in data set [1] (5 ppm total active ingredient), 113; in data set [1] (10 ppm total active ingredient) it was 107; in data set [1] (50 ppm total active ingredient), 112; in data set [1] (setting [7]) it was 107; in data set [1] (setting [8]), 109. Moreover, the values for the average body mass in data set [2] (5 ppm total active ingredient) and in data set [2] (10 ppm total active ingredient) were 18.3 and 17.8, respectively. In addition, the hatching % in data set [2] (5 ppm total active ingredient) and in data set [2] (10 ppm total active ingredient) was 100% throughout.

`COP(=O)(OC)C(O)C(Cl)(Cl)Cl` (stereo not drawn) [Trichlorfon, 2,2,2-trichloro-1-hydroxyethyl-phosphonic acid dimethylester]: in data set [3], the “Therapeutic index (selectivity)” value amounted to 15. Also, the “side effects accompanying treatment” value in data set [5] was “diarrhoea, frequent defecation and urination”. Also, the LD50 in data set [4] worked out at 450 mg/kg.

For dihydro-avermectine B1 [Ivermectine], in data set [3] (against horse bots, per os), the Therapeutic dose was found to be 0.2 mg/kg. Further, the “Toxicity acute per os LD50” value in data set [6] came to 10 mg/kg.

(Values after patent US5006545A, “Veterinary compositions against endoparasites containing cypermethrin and albendazole” (priority 1988, dated 1991).)
